Experimental data as given in PubChem BioAssay AID334 (DTP/NCI, 2004).
“And” between values parts separate entries of the source, which are not always exact repeats. Equal values may be shown once. Inconclusive results and toxic doses are left out. The calls were made as follows: active = survival T/C of 150% or more; inactive = T/C below 125% in these data.

Test system: CD2F1 mice, intracerebral P388 leukemia, median survival T/C%
Test: NCI In Vivo Anticancer Drug Screen. Data for tumor model P388 Leukemia (intracerebral) in CD2F1 (CDF1) mice
Conditions: endpoint: median survival time, higher = longer survival
Protocol: The antitumor activity of compounds was measured in mice bearing transplantable tumors. Survival or tumor size were measured and the results are expressed as the measurement made in the treated group (T) divided by the measurement made in the vehicle treated control group (C). The tumor model used in this assay is P388 Leukemia (intracerebral) in CD2F1 (CDF1) mice

Measured: T/C

CS(C)=O
inactive: dose: 1000.0 mg/kg/injection, schedule: Q01DX005 (ip), vehicle: saline 104 % of control and 107 % of control | dose: 2000.0 mg/kg/injection, schedule: Q01DX005 (ip), vehicle: saline 100 % of control and 104 % of control | dose: 4000.0 mg/kg/injection, schedule: Q01DX005 (ip), vehicle: saline 100 % of control and 105 % of control | dose: 8000.0 mg/kg/injection, schedule: Q01DX005 (ip), vehicle: saline 105 % of control and 108 % of control

C[C@]1(O)CC[C@H]2[C@@H]3CCC4=CC(=O)CC[C@]4(C)[C@@]3(F)[C@@H](O)C[C@@]21C
inactive: dose: 8.0 mg/kg/injection, schedule: Q01DX009 (ip), vehicle: saline with Tween-80 100 % of control and 105 % of control | dose: 16.0 mg/kg/injection, schedule: Q01DX009 (ip), vehicle: saline with Tween-80 91 % of control and 109 % of control | dose: 32.0 mg/kg/injection, schedule: Q01DX009 (ip), vehicle: saline with Tween-80 96 % of control and 106 % of control | dose: 64.0 mg/kg/injection, schedule: Q01DX009 (ip), vehicle: saline with Tween-80 95 % of control and 104 % of control | dose: 128.0 mg/kg/injection, schedule: Q01DX009 (ip), vehicle: saline with Tween-80 91 % of control and 104 % of control | dose: 256.0 mg/kg/injection, schedule: Q01DX009 (ip), vehicle: saline with Tween-80 96 % of control and 106 % of control | dose: 512.0 mg/kg/injection, schedule: Q01DX009 (ip), vehicle: saline with Tween-80 89 % of control and 104 % of control

c1ccc([C@H]2CN3CCSC3=N2)cc1
inactive: dose: 5.0 mg/kg/injection, schedule: Q01DX009 (ip), vehicle: saline 113 % of control and 101 % of control and 102 % of control | dose: 10.0 mg/kg/injection, schedule: Q01DX005 (ip), vehicle: saline 105 % of control and 107 % of control | dose: 10.0 mg/kg/injection, schedule: Q01DX009 (ip), vehicle: saline 97 % of control and 100 % of control and 106 % of control | dose: 20.0 mg/kg/injection, schedule: Q01DX005 (ip), vehicle: saline 98 % of control and 102 % of control | dose: 20.0 mg/kg/injection, schedule: Q01DX009 (ip), vehicle: saline 113 % of control and 92 % of control and 103 % of control | dose: 40.0 mg/kg/injection, schedule: Q01DX005 (ip), vehicle: saline 97 % of control

Cc1cc(OCc2nc(N)nc(N)c2-c2ccc(Cl)c(Cl)c2)ccc1NS(=O)(=O)c1cccc(S(=O)(=O)F)c1
inactive: dose: 117.0 mg/kg/injection, schedule: Q04DX003 (ip), vehicle: saline 100 % of control | dose: 176.0 mg/kg/injection, schedule: Q04DX003 (ip), vehicle: saline 100 % of control | dose: 264.0 mg/kg/injection, schedule: Q04DX003 (ip), vehicle: saline 111 % of control | dose: 400.0 mg/kg/injection, schedule: Q04DX003 (ip), vehicle: saline 111 % of control

CCCCCCC(=O)O[C@H]1CC[C@H]2[C@@H]3CCC4=CC(=O)CC[C@]4(C)[C@H]3CC[C@]12C
inactive: dose: 8.0 mg/kg/injection, schedule: Q01DX009 (ip), vehicle: saline + alcohol 122 % of control and 103 % of control | dose: 16.0 mg/kg/injection, schedule: Q01DX009 (ip), vehicle: saline + alcohol 118 % of control and 105 % of control | dose: 32.0 mg/kg/injection, schedule: Q01DX009 (ip), vehicle: saline + alcohol 120 % of control and 102 % of control | dose: 64.0 mg/kg/injection, schedule: Q01DX009 (ip), vehicle: saline + alcohol 114 % of control and 100 % of control | dose: 128.0 mg/kg/injection, schedule: Q01DX009 (ip), vehicle: saline + alcohol 118 % of control and 112 % of control

[N-]=[N+]=CC(=O)CCC(N)C(=O)O (stereo unspecified)
inactive: dose: 0.05 mg/kg/injection, schedule: Q01DX009 (ip), vehicle: saline 107 % of control | dose: 0.2 mg/kg/injection, schedule: Q01DX009 (ip), vehicle: saline 105 % of control | dose: 0.4 mg/kg/injection, schedule: Q01DX009 (ip), vehicle: saline 103 % of control

CC1(C)N=C(N)N=C(N)N1c1ccc(CNC(=O)Nc2cccc(S(=O)(=O)F)c2)cc1
inactive: dose: 150.0 mg/kg/injection, schedule: Q04DX003 (ip), vehicle: saline 122 % of control | dose: 225.0 mg/kg/injection, schedule: Q04DX003 (ip), vehicle: saline 116 % of control

CNc1nc(N(C)C)nc(N(C)C)n1
inactive: dose: 8.0 mg/kg/injection, schedule: Q01DX009 (ip), vehicle: saline 99 % of control | dose: 12.5 mg/kg/injection, schedule: Q01DX009 (ip), vehicle: saline 101 % of control and 111 % of control | dose: 16.0 mg/kg/injection, schedule: Q01DX009 (ip), vehicle: saline 103 % of control | dose: 32.0 mg/kg/injection, schedule: Q01DX009 (ip), vehicle: saline 106 % of control | dose: 64.0 mg/kg/injection, schedule: Q01DX009 (ip), vehicle: saline 118 % of control

CC(=O)O[C@H]1C(=O)[C@@]2(C)[C@H]([C@H](OC(=O)c3ccccc3)[C@]3(O)C[C@H](OC(=O)[C@H](O)[C@@H](NC(=O)c4ccccc4)c4ccccc4)C(C)=C1C3(C)C)[C@]1(OC(C)=O)CO[C@@H]1C[C@@H]2O
inactive: dose: 2.5 mg/kg/injection, schedule: Q01DX009 (ip), vehicle: Klucel (hydroxypropylcellulose) (HPC) 100 % of control | dose: 5.0 mg/kg/injection, schedule: Q01DX009 (ip), vehicle: Klucel (hydroxypropylcellulose) (HPC) 103 % of control | dose: 10.0 mg/kg/injection, schedule: Q01DX009 (ip), vehicle: Klucel (hydroxypropylcellulose) (HPC) 96 % of control | dose: 20.0 mg/kg/injection, schedule: Q01DX009 (ip), vehicle: Klucel (hydroxypropylcellulose) (HPC) 86 % of control

COc1cccc2c1C(=O)c1c(O)c3c(c(O)c1C2=O)CC(O)(C(=O)CO)CC3OC1CC(N)C(O)C(C)O1 (stereo unspecified)
inactive: dose: 0.78 mg/kg/injection, schedule: Q04DX003 (ip), vehicle: saline 107 % of control | dose: 1.56 mg/kg/injection, schedule: Q04DX003 (ip), vehicle: saline 98 % of control | dose: 3.12 mg/kg/injection, schedule: Q04DX003 (ip), vehicle: saline 106 % of control | dose: 3.75 mg/kg/injection, schedule: Q04DX003 (ip), vehicle: clinical formulation 100 % of control | dose: 3.75 mg/kg/injection, schedule: Q04DX003 (iv), vehicle: clinical formulation 100 % of control | dose: 6.25 mg/kg/injection, schedule: Q04DX003 (ip), vehicle: saline 97 % of control | dose: 7.5 mg/kg/injection, schedule: Q04DX003 (ip), vehicle: clinical formulation 103 % of control | dose: 7.5 mg/kg/injection, schedule: Q04DX003 (iv), vehicle: clinical formulation 99 % of control | dose: 12.5 mg/kg/injection, schedule: Q04DX003 (ip), vehicle: saline 103 % of control | dose: 15.0 mg/kg/injection, schedule: Q04DX003 (ip), vehicle: clinical formulation 100 % of control | dose: 15.0 mg/kg/injection, schedule: Q04DX003 (iv), vehicle: clinical formulation 106 % of control | dose: 25.0 mg/kg/injection, schedule: Q04DX003 (ip), vehicle: saline 91 % of control | dose: 30.0 mg/kg/injection, schedule: Q04DX003 (iv), vehicle: clinical formulation 90 % of control

CN1CC[C@]23c4c5ccc(O)c4O[C@H]2C(=O)CC[C@H]3[C@H]1C5
inactive: dose: 3.12 mg/kg/injection, schedule: Q01DX005 (iv), vehicle: saline 106 % of control | dose: 6.25 mg/kg/injection, schedule: Q01DX005 (iv), vehicle: saline 104 % of control | dose: 12.5 mg/kg/injection, schedule: Q01DX005 (iv), vehicle: saline 95 % of control
